{"source": "patent US20140356393A1", "about": "“COMPOSITION FOR TREATMENT OR PREVENTION OF HYPERLIPIDEMIA, CONTAINING WATER EXTRACTS OF LAETIPORUS SULPHUREUS” (POSTECH ACADEMY-INDUSTRY FOUNDATION, priority 2011, published 2014)", "key": {"[1]": {"tested_on": "lipid absorption", "test": "Amount of triglyceride (lipid) absorption from the digestive tract into blood", "format": "in vivo", "settings": "male Balb/c mouse, oral 14C-triolein, plasma radioactivity 6 hours after administration, relative to control = 1; FIG. 4", "procedure": "Triolein (Amersham, 100 μCi/mL) radiolabeled with ^14C was mixed with 1% (w/v) sodium carboxylmethyl cellulose (CMC-Na) and 1% (v/v) Tween 80, and then 0.1 mL of the mixture was forcibly administered into each mouse through an oral zonde so that 1 μCi could be delivered to each mouse. Here, the mouse in the control group (an 8-week old male Balb/c with body weight of 25 g) was treated with 400 μg of Orlistat (20 mg/kg), which is used as an obesity treatment, and the mouse in the experimental group (an 8-week old male Balb/c with body weight of 25 g) was treated with 0.5 mL of the water extract (50 mg/mL) of Laetiporus sulphureus prepared in the Example after concentrating it into 0.1 mL. Six hours after the administration, blood samples were collected from the mice, and plasma was obtained by centrifuging the blood at 40° C. at the rate of 14000 rpm, and the radioactive dose was measured by a liquid scintillator (Beta counter, Beckman LS1801). The control group was not treated with anything. The amount of lipid absorption was determined as a relative value by dividing the radioactive dose of each group into the radioactive dose of the control group, in which the radioactive dose of the control group was set at ‘1’."}, "[2]": {"tested_on": "cholesterol absorption", "test": "Amount of cholesterol absorption from the digestive tract into blood", "format": "in vivo", "settings": "male Balb/c mouse, oral 3H-cholesterol oleate, plasma radioactivity 6 hours after administration, relative to control = 1; FIG. 3", "procedure": "Cholesterol oleate (Amersham, 100 μCi/mL) radiolabeled with ^3H was mixed with 1% (w/v) sodium carboxylmethyl cellulose (CMC-Na), 1% (v/v) Tween 80, and a non-labeled cholesterol oleate, and then 0.1 mL of the mixture was forcibly administered into each mouse through an oral zonde so that 1 μCi could be delivered to each mouse. Here, the mouse in the control group (an 8-week old male Balb/c with body weight of 25 g) was treated with 400 μg of Orlistat (20 mg/kg), which has an inhibitory effect against cholesterol absorption, and the mouse in the experimental group (an 8-week old male Balb/c with body weight of 25 g) was treated with […] of Laetiporus sulphureus prepared in the Example after concentrating it into 0.1 mL. Six hours after the administration, blood samples were collected from the mice, and plasma was obtained by centrifuging the blood at 40° C. at the rate of 14000 rpm, and the radioactive dose was measured by a liquid scintillator (Beta counter, Beckman LS1801). The Control group was not treated with anything that may inhibit the absorption of cholesterol. The amount of cholesterol absorption was determined as a relative value by dividing the radioactive dose of each group into the radioactive dose of the control group, in which the radioactive dose of the control group was set at ‘1’."}}}
{"compound": "CCCCCCCCCCC[C@@H](C[C@@H]1OC(=O)[C@H]1CCCCCC)OC(=O)[C@H](CC(C)C)NC=O", "note": "[Orlistat]", "values": [{"measurement": "inhibitory effect upon lipid absorption", "setting": "[1]", "value": "significant inhibitory effect"}, {"measurement": "inhibitory effect upon cholesterol absorption", "setting": "[2]", "value": "significant inhibitory effect"}]}
